# What was measured:
# Microsomal stability = format: in vitro ADME; conditions: pH 7.4; female mouse microsomes (CD-1), 37°C; read-out: half-life (t1/2)
# Method: The tested product and propranolol, used as a reference, were incubated in duplicate (reaction mixture volume of 0.5 ml) with female mouse microsomes (CD-1, 20 mg/ml; BD Gentest) at 37°C in a 50 mM phosphate buffer, pH 7.4, in the presence of MgCl2 (5 mM), NADP (1 mM), glucose-6-phosphate dehydrogenase (G6PD) (0.4 U/ml), and glucose-6-phosphate (5 mM). For the estimation of the intrinsic clearance, 50-μl aliquots were collected at 0, 5, 10, 20, 30, and 40 min and the reaction was stopped with 4 volumes of acetonitrile (ACN) containing the internal standard. After centrifugation at 10,000 × g for 10 min at 4°C, the supernatants were conserved at 4°C for immediate analysis or placed at −80°C in case of postponement of the analysis. Controls (time zero and final time point) in triplicate were prepared by incubation of the internal standard with microsomes denatured by acetonitrile. […] The chromatographic analysis, with a total duration of 4 min, was made with the following gradient: 0 < t < 0.2 min, 2% mobile phase B; 0.2 < t < 2 min, linear increase to 98% mobile phase B; 2 < t < 2.5 min, 98% mobile phase B; 2.5 < t < 2.6 min, linear decrease to 2% mobile phase B; 2.6 < t < 4 min, 2% mobile phase B. The quantification of each compound was obtained by converting the average of the ratios of the analyte/internal standard surfaces to the percentage of consumed product. […]
# [1] = test system: P. yoelii (GFP-luc strain); test: In vivo liver-stage assay in mice infected with P. yoelii sporozoites; parameters: species or system BALB/c mice
# Method: Five mice per treatment group were used. Experimental groups were treated with 50 and 100 mg/kg of M1 intraperitoneally (i.p.). Untreated infected mice and noninfected mice (infection controls), as well as primaquine-treated (50 mg/kg) mice (control drug), were also included. The drugs were administered on days −1, 0, and +1, and mice were challenged on day zero by retroorbital injection of P. yoelii (GFP-luc strain) sporozoites (10,000 per mouse). In vivo bioluminescence imaging was performed 44 h postinfection on day 2, to assess liver-stage development. When parasites were detected in the liver, treatment was continued until day 5 and in vivo imaging was performed on days 3 and 6, to evaluate a prepatent period for the blood-stage parasites in mice after the sporozoite inoculation. In vivo imaging and blood smears were performed to monitor blood-stage development using methods described previously ([45]). This experiment was performed twice.
# IVIS Spectrum (Caliper Life Science, Hanover, MD) was used to capture bioluminescence signals. Prior to analysis, the mice were injected i.p. with D-luciferin (100 mg/kg), anesthetized with isoflurane, and imaged 10 min postinjection. Images were analyzed using the Living Image 3.0 software (Caliper Life Sciences, Hanover, MD).
# In order to study the in vivo efficacy of M1 without any hepatic CYP metabolism, we conducted an experiment using 1-aminobenzotriazole (ABT), a nonselective inhibitor of cytochrome P450 enzymes ([34], [35]). ABT was administered to mice i.p. 1 h before each treatment with 50 mg/kg gamhepathiopine for 3 days starting from the day before sporozoite inoculation.
# Plasmodium berghei = test system: Plasmodium berghei; parameters: method as in PMID 25791675; conditions: 2.5 mg/kg twice a day for 3 days; untreated group 9%; cited from earlier work
# [2] = test system: P. falciparum F32-TEM (artemisinin-sensitive); test: Standard in vitro chemosensitivity assay (hypoxanthine uptake), F32-TEM; format: cell-based; conditions: Plasmodium falciparum, F32, 48 h, read-out: Mean EC50 ± SD
# Method: The Plasmodium falciparum artemisinin-resistant strain F32-ART5 and its twin artemisinin-sensitive line F32-TEM ([30], [31]) were cultivated at 37°C with 5% CO2 in human red blood cells (EFS [French Blood Bank]) diluted to 2% hematocrit in RPMI 1640 medium supplemented with 5% human serum (EFS) as previously reported ([47]).
# In vitro susceptibility of P. falciparum parasites was determined by using the standard hypoxanthine uptake inhibition assay as described previously ([51]) with some modifications ([52]). After D-sorbitol treatment, parasites synchronized at the ring stage were exposed for 48 h, with [^3H]hypoxanthine (Perkin Elmer, France), to a range of concentrations of the different tested compounds. […] Each result represents 3 independent experiments.
# hERG channel = target: T1, hERG channel (Homo sapiens, UniProt Q12809); test: Predictor hERG fluorescence polarization binding assay; conditions: 0.01 nM to 100 µM
# T1 construct: purchased ThermoFischer PV5665
# Method: hERG channel binding was determined with the PredictorTM hERG Fluorescence Polarization Assay (PV5665 ThermoFischer). Briefly, reagents were thawed, and were mixed by pipetting 20x with PredictorTM hERG membranes. The fluorescent tracer was diluted at 4 nM in the PredictorTM hERG buffer. […] The assay was performed in a 96-well Greiner microplate (675093 Dutscher). 25 µL of each concentration of M1 were dispensed into the plate. Then, 50 µL of the PredictorTM hERG membranes and 25 µL of the fluorescent tracer 4 nM were added. The plate was incubated at room temperature for 4 h. The fluorescence polarization measurements were made using a Synergy 2 microplate reader (Biotek Instrument, Colmar, France). Both parallel and perpendicular fluorescence were measured using 530/25 nm excitation and 590/35 nm emission filters with a 570 nm dichroic mirror. The gain was fixed at 110. A known hERG channel blocker (E-4031), provided by the kit, was assayed as positive reference. Both E-4031 and M1 were tested at final concentrations ranging from 0.01 nM to 100 µM. IC50 values were determined graphically by plotting the % inhibition versus the logarithm of 9 M1 concentrations in the assay solution using the GraphPad Prism software (version 6.01, GraphPad Software, La Jolla, CA, USA).
# T1 sequence (Q12809 whole entry): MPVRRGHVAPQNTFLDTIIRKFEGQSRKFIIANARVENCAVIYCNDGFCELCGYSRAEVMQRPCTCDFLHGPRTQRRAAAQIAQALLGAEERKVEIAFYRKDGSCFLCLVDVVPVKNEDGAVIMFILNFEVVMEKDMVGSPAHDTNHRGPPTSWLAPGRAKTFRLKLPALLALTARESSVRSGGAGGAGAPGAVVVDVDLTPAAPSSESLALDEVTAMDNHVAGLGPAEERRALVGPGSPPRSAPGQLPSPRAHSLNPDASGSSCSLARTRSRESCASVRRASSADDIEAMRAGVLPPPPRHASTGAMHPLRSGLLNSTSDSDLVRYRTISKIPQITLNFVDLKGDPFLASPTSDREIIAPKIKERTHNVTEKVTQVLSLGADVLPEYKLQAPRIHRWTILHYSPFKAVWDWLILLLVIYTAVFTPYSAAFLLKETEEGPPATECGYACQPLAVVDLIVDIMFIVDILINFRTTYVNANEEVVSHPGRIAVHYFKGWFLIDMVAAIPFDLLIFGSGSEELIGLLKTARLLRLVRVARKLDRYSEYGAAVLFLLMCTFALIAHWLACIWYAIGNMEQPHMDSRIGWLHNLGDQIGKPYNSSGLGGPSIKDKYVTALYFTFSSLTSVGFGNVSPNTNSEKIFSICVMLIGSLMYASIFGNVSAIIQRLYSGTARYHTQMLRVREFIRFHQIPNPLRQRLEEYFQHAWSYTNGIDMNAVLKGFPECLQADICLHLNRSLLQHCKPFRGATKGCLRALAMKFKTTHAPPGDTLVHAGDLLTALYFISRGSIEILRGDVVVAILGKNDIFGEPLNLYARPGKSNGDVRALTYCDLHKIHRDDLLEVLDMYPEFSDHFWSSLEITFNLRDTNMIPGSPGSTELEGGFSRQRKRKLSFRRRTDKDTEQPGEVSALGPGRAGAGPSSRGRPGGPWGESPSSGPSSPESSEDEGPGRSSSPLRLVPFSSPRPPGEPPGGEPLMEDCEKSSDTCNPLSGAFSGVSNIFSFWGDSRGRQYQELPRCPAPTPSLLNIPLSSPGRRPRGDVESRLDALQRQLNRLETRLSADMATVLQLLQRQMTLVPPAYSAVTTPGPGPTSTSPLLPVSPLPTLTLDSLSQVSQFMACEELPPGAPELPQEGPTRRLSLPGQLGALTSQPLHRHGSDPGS
smiles,measurement,setting,value
"Cc1ccc(-c2cc3nc(NC(C)(C)C)[nH]c(=O)c3s2)cc1 [Metabolite M1, 2-(tert-Butylamino)-6-(p-tolyl)thieno[3,2-d]pyrimidin-4(3H)-one]",half-life,Microsomal stability,11 min
same,development of liver-stage parasites in vivo at day 2,"[1]; 50 mg/kg i.p., 44 h postinfection, bioluminescence",did not prevent the development of liver-stage parasites
same,blood-stage parasitemia after sporozoite infection,"[1]; 50 mg/kg, blood smears days 3 and 6",reduced the burden of blood-stage parasites
same,in vivo activity against the hepatic stages with ABT cotreatment,[1]; M1 50 mg/kg with 1-aminobenzotriazole 50 mg/kg i.p.,improved
same,parasitemia at day 4,Plasmodium berghei,4.9%
same,EC50,[2],283 ± 125 nM
same,binding toward the hERG channel,hERG channel,no affinity

# Source: publication PMC8557901 (Microbiology Spectrum, 2021)
